From US11077209B2, “Use of cerebral nitric oxide donors in the assessment of the extent of brain dysfunction following injury” (OXFORD UNIVERSITY INNOVATION LIMITED, priority 2016, dated 2021) come the findings set out here.

Data set [1] deals with patients after severe aneurysmal SAH (WFNS grade 3, 4 or 5). The settings on record: for percentage change in ADR, median: (during infusion-baseline)/baseline x100; for mean percentage change from baseline ADR over time, FIG. 3: after commencement of the nitrite infusion. The source says: Patients aged 18-80 years admitted to the Neurosciences Intensive Care Unit (NICU) at the John Radcliffe Hospital, Oxford after having suffered severe aneurysmal SAH (WFNS grade 3, 4 or 5 at time of presentation) were eligible for inclusion in the study. There were no specific selection criteria apart from grade of SAH, and the absence of any exclusion criteria (see below).
Following definitive endovascular aneurysm treatment, each patient underwent a two hour period of continuous EEG monitoring (Porti 7 system, Twente Medical Systems International) on one occasion as soon as was practically possible after endovascular securing of the aneurysm.
(§1) Sedative drug levels, muscle relaxants and vasopressors were documented and changes in infusion rates were minimised for the duration of the recording.
We used a simplified EEG montage that aimed for compromise between stable maintenance of recording and full coverage of all vascular territories. Consequently, 7-13 unipolar EEG electrodes (depending on the presence of external ventricular drains and intracranial pressure (ICP) monitors) at the following positions defined according to the international 10-20 system: Cz, Fz, Pz, Fp1, Fp2, F3, F4, P3, P4, T3, T4, O1, O2. EEG data were digitized at a sampling rate of 2048 Hz, with a high pass filter of 0.5 Hz and a low pass filter of 30 Hz.
Each surviving patient was followed up at three to six months post-rupture. Telephone follow up was performed for patients who were unable to attend hospital due to their clinical status. Primary outcome was measured by the presence or absence of delayed ischemia. Long term outcome was assessed by modified Rankin scale at 3 months, via structured standardised questions in person or by telephone. The modified Rankin scale, is a commonly used grading system that measures the degree of disability or dependence in the daily activities of people who have suffered a neurological insult. Good outcome is defined as a score of 0-2, whereas poor outcome is defined as ≥3.
Inc.) code and the EEGLAB v13.4.3b analysis toolbox. Datasets were re-referenced to the average of bilateral mastoid reference electrodes and band pass filtered from 0.5 to 15 Hz using a linear finite impulse response (FIR) filter. Each EEG recording was visually inspected and artefacts were manually removed. Channels showing evidence of excessive amounts of noise were removed from each recording.
Spectral analysis was carried out using FieldTrip, a MATLAB software toolbox for EEG analysis. Data was windowed into 30-second segments that overlapped by 50%. Time-frequency analysis was performed using a multi-taper spectral estimation using discrete prolate spheroidal (Slepian) sequences with 14 tapers, and fast Fourier transform algorithm for each electrode channel. Five 60-second epochs were selected randomly from the first (baseline) and last thirty minutes of the recording (during infusion). The epochs were separated by at least 60 seconds to avoid autocorrelation. The corresponding frequency distribution in each epoch was identified, which enabled determination of power values in the following frequency bands: delta 1-4 Hz, alpha 8-12 Hz and total low frequency power 1-15 Hz.
Statistical analysis was carried out using R and the analysis package nlme. We applied a two level linear mixed effects multilevel model to the data to allow for within patient correlation due to repeated measures on each patient over time. […] A qqnorm plot was used to identify any outliers and these were subsequently eliminated from the model. Goodness of fit was assessed via Shapiro-Wilk normality tests on fixed and random effect residuals, and calculation of R^2 for the model.

For data set [2] the test system is unchanged. As for the experimental part: as §1
The patients also underwent simultaneous transcranial Doppler (TCD) monitoring. Insonation of the MCA M1 segment was performed unilaterally on the side with the best window using colour-coded duplex ultrasound (EZ-Dop, DWL; 2 Mz probe).
The patient's PETCO2, end-tidal O2, ABP and SpO2 were recorded continuously and collected on a Power-1401 data acquisition interface (Cambridge Electronic Design). […] Arterial CO2 values were collected once during the duration of the recording as part of routine clinical care.
Waveform analysis was performed using custom written MATLAB code, enabling calculation of average pre and during infusion values for TCD middle cerebral artery velocity (MCAV) ABP, PETCO2, end-tidal O2 and ICP.

Molecules are shown by their SMILES. Read-outs that look alike come from different tables or passages of the source.

On to `O=NO` [sodium nitrite], for which, in data set [1] (good outcome group), the “percentage change in ADR, median” value is “increases” and the “mean percentage change from baseline ADR over time, FIG. 3” value was “increases”. In addition, the “ADR during infusion, median” value in data set [1] (good outcome group, baseline median 0.03) is recorded as 0.05. Besides, in data set [1] (patients with good outcome), the “delta power response to a 1-hour infusion (discussion)” value is listed as “significant increase”. Further, in data set [1] (poor outcome group), the “percentage change in ADR, median” value is recorded as “no significant differences” and the “mean percentage change from baseline ADR over time, FIG. 3” value is “does not change”. For the same molecule, the “baseline versus during infusion ADR” value in data set [1] (poor outcome patients (mRS >=3)) was “no significant differences”. Moreover, the “mean MAP in response to sodium nitrite” value in data set [2] (14 patients, from a mean MAP of 87 mmHg, p=0.026) is 84 mmHg. Also, the “change in TCD, MCAV as a result of sodium nitrite infusion” value in data set [2] (pre versus during infusion) is “no significant changes”. For the same molecule, the “change in ICP as a result of sodium nitrite infusion” value in data set [2] (pre versus during infusion, 10 patients) is given as “no significant changes”. For the same molecule, the “change in end tidal CO2 as a result of sodium nitrite infusion” value in data set [2] (pre versus during infusion, 13 patients) is reported as “no significant changes”.
